Assay [1] has as its target Recombinant wild type LRRK2 protein (Homo sapiens (Human), UniProt Q5S007). The assay can be described thus: LRRK2 kinase activity, LanthaScreen TR-FRET assay (wild type). It is filed as biochemical. The settings on record: LRRKtide 400 nM, 25 μM ATP, 60 min; read-out: LRRK2 WT IC50. Summed up: (§1)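 Recombinant human wild-type or G2019S LRRK2 phosphorylated fluorescein-labelled LRRKtide (ERM-based) with ATP and serially diluted compound for 60 min at room temperature.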
A general note: TR-FRET usually uses a lanthanide donor and a delayed reading to cut background.

Assay [2] has as its target Recombinant G2019S-LRRK2 protein (Homo sapiens (Human), UniProt Q5S007, G2019S). As to the kind of experiment: LRRK2 kinase activity, LanthaScreen TR-FRET assay (G2019S). It is filed as biochemical. Conditions: LRRKtide 400 nM, 25 μM ATP, 60 min. Summed up: as §1

Our source for the IC50 values is patent publication US11427558B1, “Indazoles and azaindazoles as LRRK2 inhibitors” (ESCAPE Bio, Inc., priority 2019, dated 2022).

Some results are limits rather than exact numbers.

Sequence of Recombinant G2019S-LRRK2 protein (Q5S007 whole entry G2019S): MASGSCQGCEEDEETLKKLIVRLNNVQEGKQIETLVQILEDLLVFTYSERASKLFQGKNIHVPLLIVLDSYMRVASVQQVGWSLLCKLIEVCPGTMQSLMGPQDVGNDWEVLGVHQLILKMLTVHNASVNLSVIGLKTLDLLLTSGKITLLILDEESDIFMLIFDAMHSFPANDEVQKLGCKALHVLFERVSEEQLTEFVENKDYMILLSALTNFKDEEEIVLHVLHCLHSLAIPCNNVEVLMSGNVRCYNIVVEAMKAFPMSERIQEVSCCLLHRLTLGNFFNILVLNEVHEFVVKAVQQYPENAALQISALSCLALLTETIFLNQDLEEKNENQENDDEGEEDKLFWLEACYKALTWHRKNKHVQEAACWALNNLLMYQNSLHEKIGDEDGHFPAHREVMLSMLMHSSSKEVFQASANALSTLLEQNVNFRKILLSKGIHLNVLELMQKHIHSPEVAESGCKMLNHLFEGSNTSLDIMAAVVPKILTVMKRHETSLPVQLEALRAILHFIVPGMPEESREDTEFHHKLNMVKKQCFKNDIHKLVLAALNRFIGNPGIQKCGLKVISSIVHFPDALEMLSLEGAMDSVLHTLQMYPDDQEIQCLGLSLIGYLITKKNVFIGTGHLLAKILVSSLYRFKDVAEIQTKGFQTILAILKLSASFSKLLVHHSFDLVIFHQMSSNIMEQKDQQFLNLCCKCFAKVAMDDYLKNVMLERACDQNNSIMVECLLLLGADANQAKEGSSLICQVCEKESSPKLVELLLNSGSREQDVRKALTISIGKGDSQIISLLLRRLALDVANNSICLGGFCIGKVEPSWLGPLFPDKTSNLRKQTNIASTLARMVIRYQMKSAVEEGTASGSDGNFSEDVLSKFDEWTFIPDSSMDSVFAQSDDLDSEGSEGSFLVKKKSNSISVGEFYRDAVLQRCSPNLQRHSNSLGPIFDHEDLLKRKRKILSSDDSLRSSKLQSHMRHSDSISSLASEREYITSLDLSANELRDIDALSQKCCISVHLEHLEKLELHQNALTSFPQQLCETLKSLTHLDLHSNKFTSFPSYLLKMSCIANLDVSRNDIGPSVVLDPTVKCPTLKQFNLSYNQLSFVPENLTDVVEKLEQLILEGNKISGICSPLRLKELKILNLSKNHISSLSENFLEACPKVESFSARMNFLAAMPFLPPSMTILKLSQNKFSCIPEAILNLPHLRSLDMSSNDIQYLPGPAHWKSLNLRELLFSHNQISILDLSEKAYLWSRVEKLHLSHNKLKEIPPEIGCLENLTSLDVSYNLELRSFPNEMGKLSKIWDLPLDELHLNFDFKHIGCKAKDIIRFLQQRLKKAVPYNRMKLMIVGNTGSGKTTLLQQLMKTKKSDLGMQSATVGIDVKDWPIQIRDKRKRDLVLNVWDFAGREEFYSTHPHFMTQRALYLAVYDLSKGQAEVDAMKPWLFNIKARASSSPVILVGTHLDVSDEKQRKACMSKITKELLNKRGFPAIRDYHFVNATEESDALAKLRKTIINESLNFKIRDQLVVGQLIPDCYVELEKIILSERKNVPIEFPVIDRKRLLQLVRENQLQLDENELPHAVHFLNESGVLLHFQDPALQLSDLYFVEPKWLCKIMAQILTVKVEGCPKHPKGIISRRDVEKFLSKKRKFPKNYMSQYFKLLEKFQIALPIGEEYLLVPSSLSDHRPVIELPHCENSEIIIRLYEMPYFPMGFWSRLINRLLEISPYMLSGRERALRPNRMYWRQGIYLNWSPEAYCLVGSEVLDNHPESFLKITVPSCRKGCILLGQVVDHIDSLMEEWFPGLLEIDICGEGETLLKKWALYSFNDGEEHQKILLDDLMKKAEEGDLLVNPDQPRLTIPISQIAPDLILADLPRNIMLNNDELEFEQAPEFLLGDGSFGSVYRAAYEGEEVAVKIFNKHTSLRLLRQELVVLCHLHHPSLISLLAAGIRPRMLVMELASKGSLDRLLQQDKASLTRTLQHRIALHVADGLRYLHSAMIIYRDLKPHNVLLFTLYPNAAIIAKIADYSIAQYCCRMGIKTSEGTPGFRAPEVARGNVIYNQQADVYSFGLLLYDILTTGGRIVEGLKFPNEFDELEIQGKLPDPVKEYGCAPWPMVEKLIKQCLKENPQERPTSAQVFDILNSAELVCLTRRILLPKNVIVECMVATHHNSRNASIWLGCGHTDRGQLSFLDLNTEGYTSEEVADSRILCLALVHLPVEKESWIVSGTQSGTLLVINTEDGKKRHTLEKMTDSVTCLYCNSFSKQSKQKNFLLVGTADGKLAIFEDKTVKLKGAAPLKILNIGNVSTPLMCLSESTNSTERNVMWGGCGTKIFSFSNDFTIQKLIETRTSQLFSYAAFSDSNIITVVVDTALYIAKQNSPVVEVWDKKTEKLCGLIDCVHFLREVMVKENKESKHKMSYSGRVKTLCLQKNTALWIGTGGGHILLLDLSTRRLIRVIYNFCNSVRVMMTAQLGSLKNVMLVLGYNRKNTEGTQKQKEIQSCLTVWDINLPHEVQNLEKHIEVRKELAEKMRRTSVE
Sequence of Recombinant wild type LRRK2 protein (Q5S007 whole entry): as the sequence (Q5S007 whole entry G2019S) above, with S2019G counted along it

`N#Cc1cccc(C(=O)Nc2ccc3[nH]nc(-c4ccoc4)c3c2)c1Cl` [Example 86, 2-chloro-3-cyano-N-(3-(furan-3-yl)-1H-indazol-5-yl)benzamide]: the concentration for half-maximal inhibition (IC50) in assay [1] and in assay [2] was less than 100 nM each time.

Regarding `Cc1cc(C#N)cnc1C(=O)Nc1ccc2[nH]nc(I)c2c1` [Example 87, 5-cyano-N-(3-iodo-1H-indazol-5-yl)-3-methylpicolinamide], the 50% inhibitory concentration (IC50) was 100 to 1000 nM in assay [1] and less than 100 nM in assay [2].

As to `Cc1c(C#N)cccc1C(=O)Nc1cc(C)c2[nH]nc(-c3ccoc3)c2c1` [Example 88, 3-cyano-N-(3-(furan-3-yl)-7-methyl-1H-indazol-5-yl)-2-methylbenzamide], the IC50 in assay [1] lay within 1000 to 10000 nM; in assay [2], 100 to 1000 nM.

Regarding `N#Cc1cccc(C(=O)Nc2ccc3[nH]nc(-c4ccoc4)c3c2)c1Br` [Example 89, 2-bromo-3-cyano-N-(3-(furan-3-yl)-1H-indazol-5-yl)benzamide], the 50% inhibitory concentration (IC50) in assay [1] and in assay [2] was less than 100 nM throughout.

For the compound `Cc1c(C(=O)Nc2ccc3[nH]nc(-c4ccoc4)c3c2)c(C#N)nn1C` [Example 90, 3-Cyano-N-(3-(furan-3-yl)-1H-indazol-5-yl)-1,5-dimethyl-1H-pyrazole-4-carboxamide], the half-inhibitory concentration (IC50) in assay [1] and in assay [2] was less than 100 nM each time.

For the compound `N#Cc1cc(C(=O)Nc2ccc3[nH]nc(-c4ccoc4)c3c2)ns1` [Example 91, 5-Cyano-N-(3-(furan-3-yl)-1H-indazol-5-yl)isothiazole-3-carboxamide], the concentration for half-maximal inhibition (IC50) in assay [1] and in assay [2] was less than 100 nM in each case.

`Cc1c(C#N)nn(C)c1C(=O)Nc1ccc2[nH]nc(-c3ccoc3)c2c1` [Example 92, 3-Cyano-N-(3-(furan-3-yl)-1H-indazol-5-yl)-1,4-dimethyl-1H-pyrazole-5-carboxamide]: the IC50 in assay [1] was 100 to 1000 nM; in assay [2], less than 100 nM.

Take `Cc1c(C(=O)Nc2ccc3[nH]nc(-c4ccoc4)c3c2)nn(C)c1C#N` [Example 93, 5-Cyano-N-(3-(furan-3-yl)-1H-indazol-5-yl)-1,4-dimethyl-1H-pyrazole-3-carboxamide]: the 50% inhibitory concentration (IC50) in assay [1] and in assay [2] was 100 to 1000 nM throughout.

Turning to `Cc1cc(C(=O)Nc2ccc3[nH]nc(-c4ccoc4)c3c2)ncc1C#N` [Example 94, 5-Cyano-N-(3-(furan-3-yl)-1H-indazol-5-yl)-4-methylpicolinamide], the figures for the IC50 in assay [1] and in assay [2] were 100 to 1000 nM and less than 100 nM, respectively.

Turning to `N#Cc1cnc(C(=O)Nc2ccc3[nH]nc(-c4ccoc4)c3c2)c(Cl)c1` [Example 95, 3-chloro-5-cyano-N-(3-(furan-3-yl)-1H-indazol-5-yl)picolinamide], the 50% inhibitory concentration (IC50) in assay [1] and in assay [2] was less than 100 nM each time.

Regarding `Cn1c(C#N)cnc1C(=O)Nc1ccc2[nH]nc(-c3ccoc3)c2c1` [Example 96, 5-Cyano-N-(3-(furan-3-yl)-1H-indazol-5-yl)-1-methyl-1H-imidazole-2-carboxamide], the 50% inhibitory concentration (IC50) in assay [1] and in assay [2] was 100 to 1000 nM in each case.

In the case of `Cn1nc(C(=O)Nc2ccc3[nH]nc(-c4ccoc4)c3c2)cc1C#N` [Example 97, 5-Cyano-N-(3-(furan-3-yl)-1H-indazol-5-yl)-1-methyl-1H-pyrazole-3-carboxamide], the concentration for half-maximal inhibition (IC50) in assay [1] is 100 to 1000 nM; in assay [2], less than 100 nM.

In the case of `Cc1ccccc1-c1n[nH]c2ccc(NC(=O)c3ncc(C#N)cc3C)cc12` [Example 98, 5-Cyano-3-methyl-N-(3-(o-tolyl)-1H-indazol-5-yl)picolinamide], the results for the IC50 in assay [1] and in assay [2] were more than 10000 nM and 1000 to 10000 nM, respectively.

Consider `COc1ccccc1-c1n[nH]c2ccc(NC(=O)c3ncc(C#N)cc3C)cc12` [Example 99, 5-Cyano-N-(3-(2-methoxyphenyl)-1H-indazol-5-yl)-3-methylpicolinamide], for which the half-maximal inhibitory concentration (IC50) in assay [1] was 1000 to 10000 nM; in assay [2] it was 100 to 1000 nM.

For the compound `Cc1cc(C#N)cnc1C(=O)Nc1ccc2[nH]nc(-c3ccoc3)c2n1` [Example 100, 5-Cyano-N-(3-(furan-3-yl)-1H-pyrazolo[4,3-b]pyridin-5-yl)-3-methylpicolinamide], the 50% inhibitory concentration (IC50) in assay [1] and in assay [2] was less than 100 nM throughout.

In the case of `Cc1cc(C#N)cnc1C(=O)Nc1ccc2[nH]nc(-c3ccno3)c2c1` [Example 101, 5-Cyano-N-(3-(isoxazol-5-yl)-1H-indazol-5-yl)-3-methylpicolinamide], the concentration for half-maximal inhibition (IC50) was 100 to 1000 nM in assay [1] and less than 100 nM in assay [2].

In the case of `Cc1cc(C#N)cnc1C(=O)Nc1ccc2[nH]nc(-c3ccc(CN4CCOCC4)s3)c2c1` [Example 102, 5-Cyano-3-methyl-N-(3-(5-(morpholinomethyl)thiophen-2-yl)-1H-indazol-5-yl)picolinamide], the half-maximal inhibitory concentration (IC50) in assay [1] is 100 to 1000 nM; in assay [2], less than 100 nM.

In the case of `Cc1cc(C#N)cnc1C(=O)Nc1ccc2[nH]nc(-c3ccnc(Br)c3)c2c1` [Example 103, N-(3-(2-Bromopyridin-4-yl)-1H-indazol-5-yl)-5-cyano-3-methylpicolinamide], the half-inhibitory concentration (IC50) in assay [1] and in assay [2] was less than 100 nM in each case.

For the compound `Cc1c(C(=O)Nc2ccc3[nH]nc(-c4ccccc4)c3c2)nc(C#N)n1C` [Example 104, 2-Cyano-1,5-dimethyl-N-(3-phenyl-1H-indazol-5-yl)-1H-imidazole-4-carboxamide], the IC50 in assay [1] and in assay [2] was 100 to 1000 nM in each case.

On to `Cc1cc(C#N)cnc1C(=O)Nc1ccc2[nH]nc(Br)c2c1` [Example 106, N-(3-Bromo-1H-indazol-5-yl)-5-cyano-3-methylpicolinamide], for which the IC50 is 1000 to 10000 nM in assay [1] and less than 100 nM in assay [2].

Consider `N#Cc1ccc(C(=O)Nc2ccc3[nH]nc(-c4ccoc4)c3c2)c(O)c1` [Example 107, 4-Cyano-N-(3-(furan-3-yl)-1H-indazol-5-yl)-2-hydroxybenzamide], for which the IC50 in assay [1] and in assay [2] was 100 to 1000 nM in each case.

Consider `Cc1cc(C#N)cnc1C(=O)Nc1ccc2[nH]nc(-c3ccc(C(=O)N4CCOCC4)cc3)c2c1` [Example 108, 5-Cyano-3-methyl-N-(3-(4-(morpholine-4-carbonyl)phenyl)-1H-indazol-5-yl)picolinamide], for which the results for the half-maximal inhibitory concentration (IC50) in assay [1] and in assay [2] were 100 to 1000 nM and less than 100 nM, respectively.

`Cc1cc(C#N)cnc1C(=O)Nc1ccc2[nH]nc(-c3cncc(OC(C)C)c3)c2c1` [Example 109, 5-Cyano-N-(3-(5-isopropoxypyridin-3-yl)-1H-indazol-5-yl)-3-methylpicolinamide]: the concentration for half-maximal inhibition (IC50) in assay [1] was 100 to 1000 nM; in assay [2], less than 100 nM.

On to `Cc1cc(C#N)cnc1C(=O)Nc1ccc2[nH]nc(-c3cncs3)c2c1` [Example 110, 5-Cyano-3-methyl-N-(3-(thiazol-5-yl)-1H-indazol-5-yl)picolinamide], for which the half-inhibitory concentration (IC50) in assay [1] is 100 to 1000 nM; in assay [2] it was less than 100 nM.

As for `Cc1cc(C#N)cnc1C(=O)Nc1ccc2[nH]nc(-c3cnco3)c2c1` [Example 111, 5-Cyano-3-methyl-N-(3-(oxazol-5-yl)-1H-indazol-5-yl)picolinamide], the IC50 in assay [1] was 100 to 1000 nM; in assay [2] it was less than 100 nM.

Take `Cc1cccc(-c2n[nH]c3ccc(NC(=O)c4ncc(C#N)cc4C)cc23)n1` [Example 112, 5-Cyano-3-methyl-N-(3-(6-methylpyridin-2-yl)-1H-indazol-5-yl)picolinamide]: the IC50 in assay [1] and in assay [2] was 100 to 1000 nM in each case.

In the case of `Cc1cc(C#N)cnc1C(=O)Nc1ccc2[nH]nc(-c3ccnc(C#N)c3)c2c1` [Example 113, 5-Cyano-N-(3-(2-cyanopyridin-4-yl)-1H-indazol-5-yl)-3-methylpicolinamide], the IC50 is 100 to 1000 nM in assay [1] and less than 100 nM in assay [2].

Turning to `Cc1cc(C#N)cnc1C(=O)Nc1ccc2[nH]nc(-c3ccccn3)c2c1` [Example 114, 5-Cyano-3-methyl-N-(3-(pyridin-2-yl)-1H-indazol-5-yl)picolinamide], the IC50 in assay [1] lay in the range of 1000 to 10000 nM; in assay [2], 100 to 1000 nM.

Regarding `Cc1cc(C#N)cnc1C(=O)Nc1ccc2[nH]nc(-c3ccnc(N4C[C@H](C)O[C@@H](C)C4)c3)c2c1` [Example 115, 5-Cyano-N-(3-(2-((2S,6S)-2,6-dimethylmorpholino)pyridin-4-yl)-1H-indazol-5-yl)-3-methylpicolinamide], the 50% inhibitory concentration (IC50) in assay [1] and in assay [2] was less than 100 nM in each case.

With `N#Cc1cnc(C(=O)Nc2ccc3[nH]nc(-c4ccoc4)c3c2)c2sccc12` [Example 116, 4-Cyano-N-(3-(furan-3-yl)-1H-indazol-5-yl)thieno[2,3-c]pyridine-7-carboxamide], the IC50 is 1000 to 10000 nM in assay [1] and 100 to 1000 nM in assay [2].

Take `Cc1cc(C#N)cnc1C(=O)Nc1ccc2[nH]nc(-c3ccnc(N4C[C@H](C)C[C@H](C)C4)c3)c2c1` [Example 117, 5-Cyano-N-(3-(2-((3R,5S)-3,5-dimethylpiperidin-1-yl)pyridin-4-yl)-1H-indazol-5-yl)-3-methylpicolinamide]: the figures for the concentration for half-maximal inhibition (IC50) in assay [1] and in assay [2] were 100 to 1000 nM and less than 100 nM, respectively.

In the case of `Cc1cc(C#N)cnc1C(=O)Nc1ccc2[nH]nc(-c3ccnc(N4C[C@@H](C)O[C@@H](C)C4)c3)c2c1` [Example 118, 5-Cyano-N-(3-(2-((2S,6R)-2,6-dimethylmorpholino)pyridin-4-yl)-1H-indazol-5-yl)-3-methylpicolinamide], the IC50 in assay [1] and in assay [2] was less than 100 nM each time.

Turning to `Cc1cc(C#N)cnc1C(=O)Nc1ccc2[nH]nc(-c3cccc(N4C[C@@H](C)O[C@@H](C)C4)c3)c2c1` [Example 119, 5-Cyano-N-(3-(3-((2S,6R)-2,6-dimethylmorpholino)phenyl)-1H-indazol-5-yl)-3-methylpicolinamide], the figures for the half-inhibitory concentration (IC50) in assay [1] and in assay [2] were 100 to 1000 nM and less than 100 nM, respectively.

As to `N#Cc1ccc(F)c(C(=O)Nc2ccc3[nH]nc(-c4ccoc4)c3c2)c1F` [Example 120, 3-Cyano-2,6-difluoro-N-(3-(furan-3-yl)-1H-indazol-5-yl)benzamide], the IC50 in assay [1] and in assay [2] was less than 100 nM throughout.

Broadly, the IC50 is the concentration needed to halve the response being measured.
